Measurements as given in patent publication US10913752B2, “Bivalent bromodomain inhibitors and uses thereof” (Dana-Farber Cancer Institute, Inc., priority 2015, dated 2021).
“Also recorded” adds a separate entry of the source.

Tests used:
NMC797 and MV4; 11 cells = assay: Cellular assays, cell lines not told apart (NMC797 and MV4;11); format: cell-based, human
From the text: Analysis of Cell Viability by ATPLite

BRD4(1) [1] = target: T1, BRD4(1) (Homo sapiens, UniProt O60885); assay: BRD4(1) AlphaScreen (competition with biotinylated-JQ1); format: binding; set-up: human BRD4 covering residues 44-168 (His-BRD4(1)) or 333-460 (His-BRD4(2)); made in house; host or cells: E. coli BL21 (DE3); settings: for biochemical activity (in words): biochemical assay, compared with JQ1
Protocol: BRD4(1) and BRDT(1) AlphaScreen™
Assays were performed with minimal modifications from the manufacturer's protocol (PerkinElmer, USA). All reagents were diluted in AlphaScreen™ buffer (50 mM HEPES, 150 mM NaCl, 0.1% w/v BSA, 0.01% w/v Tween20, pH 7.5) and allowed to equilibrate to room temperature prior to addition to plates. After addition of Alpha beads to master solutions all subsequent steps were performed under low light conditions. […] Plates were spun down at 150×g, 100 nL of compound in DMSO from stock plates were added by pin transfer using a Janus Workstation (PerkinElmer). The streptavidin-coated donor beads (10 μg/ml final) were added as with previous in a 2×, 10 μL volume. Following this addition, plates were sealed with foil to prevent light exposure and evaporation. The plates were spun down again at 150×g.

[2] = Mouse pharmacokinetics (cassette and single PK); format: in vivo, CD1 mice; settings: mice
Protocol: FIGS. 9a-9b. Cassette PK properties of bivalent inhibitors. FIGS. 9a and 9b show PK parameters of mice 5-in-1 cassette PK. Five compounds (1 mg/kg) were intravenously administered to CD1 mice (n=3).
FIGS. 10a-10b. Individual PK properties of bivalent inhibitors. […] (6S+2S)-PEG0 (50 mg/kg) was intraperitoneally administered to CD1 mice (n=3). […] (6S+6S)-PEG7 (50 mg/kg) was intraperitoneally administered to CD1 mice (n=3).

CBP = target: T2, CBP (Homo sapiens, UniProt Q92793); assay: BROMOscan, CBP; format: binding
T2 construct: purchased DiscoveRx (BROMOscan)
T2 sequence (Q92793 1085-1192 limits assumed): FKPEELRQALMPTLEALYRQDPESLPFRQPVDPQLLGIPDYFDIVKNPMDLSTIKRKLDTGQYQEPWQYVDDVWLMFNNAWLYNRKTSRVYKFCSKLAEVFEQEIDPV
From the text: (§1) To further profile bivalent inhibitors, fluorescent polarization (FP) and phage-based, multiplexed bromodomain displacement assays (BROMOscan™, DiscoveRx) were utilized.

EP300 = target: T3, EP300 (Homo sapiens, UniProt Q09472); assay: BROMOscan, EP300; format: binding
T3 construct: purchased DiscoveRx (BROMOscan)
T3 sequence (Q09472 1049-1156 limits assumed): as the sequence (Q92793 1085-1192 limits assumed) above, with N47S, V73I, F93Y, A98S counted along it
From the text: as §1

WDR9(2) = target: T4, WDR9(2) (Homo sapiens, UniProt Q9NSI6); assay: BROMOscan, WDR9(2); format: binding
T4 construct: purchased DiscoveRx (BROMOscan)
T4 sequence (Q9NSI6 1313-1418 limits assumed): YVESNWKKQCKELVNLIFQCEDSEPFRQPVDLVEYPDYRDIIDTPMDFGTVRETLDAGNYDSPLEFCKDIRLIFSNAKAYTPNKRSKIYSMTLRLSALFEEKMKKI
From the text: as §1

MYC = assay: Immunoblot for MYC in MV4;11 cells; format: cell-based, human
Protocol: (§2) Cells were lysed with RIPA buffer supplemented with protease inhibitor cocktail (Roche) and 0.1% benzonase (Novagen) on ice for 20 minutes. The lysates were spun at 20,000×g for 15 minutes at 4° C. and protein concentration was determined by a BCA assay (Pierce). The following antibodies were used in this study: BRD4 (Bethyl labs), c-MYC and actin (both Santa Cruz), HEXIM1, PARP, cleaved caspase 3 (all Cell Signaling Technology). Blots were imaged using fluorescence-labeled secondary antibodies (LI-COR) on the OdysseyCLxImager (LI-COR).

HEXIM1 = assay: Immunoblot for HEXIM1 in MV4;11 cells; format: cell-based, human
Protocol: as §2

BRD4 = target: T5, BRD4 (Homo sapiens, UniProt O60885); assay: Immunoblot for BRD4 protein stability (degradation); format: cell-based; settings: immunoblots following compound treatment
T5 construct: endogenous in cells; host or cells: MV4;11
Protocol: as §2

BRD4(2) = BRD4(2) (Homo sapiens, UniProt O60885); assay: BROMOscan, BRD4(2)
BRD4(full) = BRD4(full) (Homo sapiens, UniProt O60885); assay: BROMOscan, full length protein
BRD4(1,2) = BRD4(1,2) (Homo sapiens, UniProt O60885); assay: BROMOscan, tandem bromodomain construct
BRD4(1) [3] = target: T1, BRD4(1); assay: BROMOscan phage-based bromodomain displacement, BRD4(1)
[4] = tested on: NMC797 cells (BRD4-rearranged NUT midline carcinoma); assay: cells; settings: Homo sapiens, NMC-797, 72 h, read-out: IC50, proliferation
Protocol: Cells were cultured at 37° C. with 5% CO2 in either DMEM (NMC797) or RPMI1640 (MV4; 11) supplemented with 10% FBS (Sigma), 100 U/mL penicillin, 100 μg/mL streptomycin, and 2 mM glutamine (Gibco). Cells tested negative for mycoplasma using the MycoAlert™ kit (Lonza).
Cells were plated at 1000 cells/well in 50 μL/well of media in 384 well white culture plates (Thermo). NMC797 cells were allowed to adhere overnight before adding 100 μL of compound in DMSO from compound stock plates using a Janus Workstation pin tool (PerkinElmer, USA). […] Cell viability was read out using the ATPlite kit (PerkinElmer). Plates were brought to room temperature prior to reagent addition. Lyophilized powder was resuspended in lysis buffer and diluted 1:2 with DI water.

neurokinin NK2 receptor = target: T6, neurokinin NK2 receptor (Homo sapiens, UniProt P21452); assay: Receptor profiling, [Nleu-10]-NKA radioligand binding; settings: 1 μM
T6 construct: purchased CEREP (Eurofins, Paris, France), ExpresSProfile
T6 sequence (P21452 whole entry): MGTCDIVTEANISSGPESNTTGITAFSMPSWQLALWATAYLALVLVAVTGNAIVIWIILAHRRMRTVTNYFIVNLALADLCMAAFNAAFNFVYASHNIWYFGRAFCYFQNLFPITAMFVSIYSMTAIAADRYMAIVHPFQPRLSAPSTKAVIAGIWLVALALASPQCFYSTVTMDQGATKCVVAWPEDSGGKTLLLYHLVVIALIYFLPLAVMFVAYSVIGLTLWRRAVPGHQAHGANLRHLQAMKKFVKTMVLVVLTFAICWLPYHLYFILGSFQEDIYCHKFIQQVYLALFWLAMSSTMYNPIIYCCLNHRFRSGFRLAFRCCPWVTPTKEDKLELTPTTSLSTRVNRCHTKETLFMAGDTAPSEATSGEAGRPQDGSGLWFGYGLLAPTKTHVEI
From the text: Receptor Profiling Studies

wild-type BRD4(1,2) = assay: Size-exclusion chromatography, wild-type tandem construct; settings: half an equivalence of MT1
BRD4(1,2^MUT) (N433A) = assay: Size-exclusion chromatography, second bromodomain mutant; settings: half an equivalence of MT1
BRD4(1^MUT,2) (N140A) = assay: Size-exclusion chromatography, first bromodomain mutant; settings: half an equivalence of MT1
BRD2, 3 and 4 = assay: Cellular thermal shift assay (CETSA); format: cell-based, human; settings: MV411 cells
Protocol: Cellular Thermal Shift Assay (CETSA)
Compound or DMSO was incubated with 4×10^6 MV411 cells for 1 hr at 37° C. Cells were put on ice and washed with PBS and transferred to PCR tubes. Supernatant was aspirated to leave ˜5 μl in each tube and then cells were heat shocked in a thermocycler at 48.5° C. for 3 min to denature proteins. Cells were then allowed to cool at RT for 3 min and then resuspended in 35 μl lysis buffer (50 mM Tris-HCl pH 7.5, 5% glycerol, 100 mM NaCl, 1.5 mM MgCl, 0.2% NP-40+protease inhibitor cocktail (Halt)) and freeze-thawed 3 times with liquid nitrogen to lyse cells. Lysates were then spun at 20,000×g for 20 min to clarify and pellet aggregated protein. Supernatant was boiled with LDS and split into three samples for immunoblotting. Bands were quantified using Image Studio™ software and plotted using GraphPad PRISM v6 as triplicate means±SEM.

MV4; 11 cells = assay: Immunoblot for caspase-3 and PARP cleavage in MV4;11 cells; format: cell-based, human; settings: 100 nM
Protocol: as §2

[5] = tested on: MV4; 11 human leukemia cells (mCherry+, Luciferase+); assay: Disseminated leukemia xenograft, second (survival) study; format: in vivo, mice (NSG); settings: 44.2 μmol/kg
From the text: A drug holiday was given for 2 days (day 29-30), Treatment resumed for 5 more days (31-35) and then ended. Mice were monitored and sacrificed when hind-limb paralysis was evident or body weight dropped by 15%.

[6] = tested on: 55 ligand receptors, ion channels, and transport proteins; assay: Receptor profiling (ExpresSProfile, CEREP); settings: 1 μM, more than 50 tested
[7] = tested on: MV4; 11 human leukemia cells (mCherry+, Luciferase+); assay: Disseminated leukemia xenograft, first study; set-up: mCherry+ leukemic burden in bone marrow by FACS: dose or concentration left out as unconfirmed

**Q.** Which “cellular activity (in words)” value (NMC797 and MV4; 11 cells; 11, compared with JQ1) does the source give for `COC(=O)C[C@@H]1N=C(c2ccc(Cl)cc2)c2c(sc(C(=O)NCCOCCNC(=O)c3sc4c(c3C)C(c3ccc(Cl)cc3)=N[C@@H](CC(=O)OC)c3nnc(C)n3-4)c2C)-n2c(C)nnc21` [(2+2)-PEG1, Dimethyl 2,2′-((6S,6′S)-(((oxybis(ethane-2,1-diyl))bis(azanediyl))bis(carbonyl))bis(4-(4-chlorophenyl)-3,9-dimethyl-6H-thieno[3,2-f][1,2,4]triazolo[4,3-a][1,4]diazepine-2,6-diyl))diacetate] here?
**A.** not properly reflected in cellular activity

**Q.** And the “cellular activity (in words)” value (NMC797 and MV4; 11 cells; 11, compared with JQ1, listed as (2+2) homodimer)?
**A.** did not translate into cellular activity

**Q.** What about the IC50 (BRD4(1) [1]; AlphaScreen, BRD4(1)) of the same molecule?
**A.** 0.00117 µM

**Q.** And the “fold increase in biochemical potency / inhibitory activity” value (BRD4(1) [1]; BRD4(1), relative to monomeric inhibitor)?
**A.** 20 fold

**Q.** For `COC(=O)C[C@@H]1N=C(c2ccc(Cl)cc2)c2c(sc(C(=O)NCCNC(=O)C[C@@H]3N=C(c4ccc(Cl)cc4)c4c(sc(C)c4C)-n4c(C)nnc43)c2C)-n2c(C)nnc21` [(6+6)-PEG1, Methyl 2-((S)-4-(4-chlorophenyl)-2-((2-(2-((S)-4-(4-chlorophenyl)-2,3,9-trimethyl-6H-thieno[3,2-f][1,2,4]triazolo[4,3-a][1,4]diazepin-6-yl)acetamido)ethyl)carbamoyl)-3,9-dimethyl-6H-thieno[3,2-f][1,2,4]triazolo[4,3-a][1,4]diazepin-6-yl)acetate], which “cellular activity (in words)” value (NMC797 and MV4; 11 cells; 11, compared with JQ1) is on record?
**A.** did not show improved activity

**Q.** And the “cellular activity (in words)” value (NMC797 and MV4; 11 cells; 11, compared with JQ1, listed as (6+6) homodimer)?
**A.** did not increase biochemical or cellular activity

**Q.** And the “biochemical activity (in words)” value (BRD4(1) [1])?
**A.** did not show improved activity

**Q.** And the “biochemical activity (in words)” value (BRD4(1) [1]; listed as (6+6) homodimer)?
**A.** did not increase biochemical or cellular activity

**Q.** For `COC(=O)C[C@@H]1N=C(c2ccc(Cl)cc2)c2c(sc(C(=O)NCCNC(=O)C[C@@H]3N=C(c4ccc(Cl)cc4)c4c(sc(C)c4C)-n4c(C)nnc43)c2C)-n2c(C)nnc21` [(6S+2S)-PEG0, Methyl 2-((S)-4-(4-chlorophenyl)-2-((2-(2-((S)-4-(4-chlorophenyl)-2,3,9-trimethyl-6H-thieno[3,2-f][1,2,4]triazolo[4,3-a][1,4]diazepin-6-yl)acetamido)ethyl)carbamoyl)-3,9-dimethyl-6H-thieno[3,2-f][1,2,4]triazolo[4,3-a][1,4]diazepin-6-yl)acetate], which “PK properties (in words)” value [2] is on record?
**A.** comparable PK properties to MT1

**Q.** Which results are given for `COC(=O)C[C@@H]1N=C(c2ccc(Cl)cc2)c2c(sc(C(=O)NCCOCCNC(=O)C[C@@H]3N=C(c4ccc(Cl)cc4)c4c(sc(C)c4C)-n4c(C)nnc43)c2C)-n2c(C)nnc21` [(6S+2S)-PEG1, Methyl 2-((S)-4-(4-chlorophenyl)-2-((2-(2-(2-((S)-4-(4-chlorophenyl)-2,3,9-trimethyl-6H-thieno[3,2-f][1,2,4]triazolo[4,3-a][1,4]diazepin-6-yl)acetamido)ethoxy)ethyl)carbamoyl)-3,9-dimethyl-6H-thieno[3,2-f][1,2,4]triazolo[4,3-a][1,4]diazepin-6-yl)acetate]?
**A.** cellular activity (in words) (NMC797 and MV4; 11 cells; 11, compared with JQ1): single-digit to sub-nanomolar activity; Kd (CBP): 2.5 µM; Kd (EP300): 5 µM; Kd (WDR9(2)): 9.9 µM; time of maximum effect on MYC (MYC; 10 nM): 2 h; lowest concentration with MYC downregulation (MYC; within two hours): 10 nM; time points of HEXIM1 upregulation (HEXIM1): 4 to 24 h; effect on BRD4 protein stability (BRD4): No effect on protein stability; displacement of phage (in words) (BRD4(2)): picomolar displacement; displacement of phage (in words) (BRD4(full)): picomolar displacement; displacement of phage (in words) (BRD4(1,2)): picomolar displacement; displacement of phage (in words) (BRD4(1) [3]): picomolar displacement; biochemical activity (in words) (BRD4(1) [1]): single-digit to sub-nanomolar activity

**Q.** For `COc1cc2c(cc1-c1c(C)noc1C)ncc1[nH]c(=O)n([C@H](C)c3ccccn3)c12` [I-BET151, reference compound], which “cellular activity (in words)” value (NMC797 and MV4; 11 cells; 11, compared with JQ1) is on record?
**A.** comparable performance to JQ1

**Q.** What about the “biochemical activity (in words)” value (BRD4(1) [1]) of the same molecule?
**A.** comparable performance to JQ1

**Q.** Which IC50 [4] does the source give for `Cc1sc2c(c1C)C(c1ccc(Cl)cc1)=N[C@@H](CC(=O)OC(C)(C)C)c1nnc(C)n1-2` [JQ1, reference compound] here?
**A.** 0.069 µM

**Q.** Which “cellular activity (in words)” value (NMC797 and MV4; 11 cells; 11, compared with JQ1) does the source give for “Methyl 2-((S)-4-(4-chlorophenyl)-2-((2-(2-((S)-4-(4-chlorophenyl)-2,3,9-trimethyl-6H-thieno[3,2-f][1,2,4]triazolo[4,3-a][1,4]diazepin-6-yl)acetamido)ethyl)carbamoyl)-3,9-dimethyl-6H-thieno[3,2-f][1,2,4]triazolo[4,3-a][1,4]diazepin-6-yl)acetate [MT1]” here?
**A.** translated well in cellular activities

**Q.** And the “PK properties (in words)” value [2]?
**A.** improved PK properties

**Q.** And the “exposure in vivo (in words)” value [2]?
**A.** highly prolonged exposure in vivo

**Q.** And the “inhibition of radioligand agonist binding” value (neurokinin NK2 receptor)?
**A.** only partial inhibition of binding

**Q.** What about the “dimerization by SEC” value (wild-type BRD4(1,2)) of the same molecule?
**A.** absence of dimerization

**Q.** What about the “dimerization by SEC” value (BRD4(1,2^MUT) (N433A)) of the same molecule?
**A.** Complete dimerization

**Q.** What about the “dimerization by SEC” value (BRD4(1^MUT,2) (N140A)) of the same molecule?
**A.** partial dimerization

**Q.** What about the “concentrations needed for stabilization, compared with JQ1” value (BRD2, 3 and 4) of the same molecule?
**A.** lower concentrations

**Q.** What about the “thermal stabilization of BET proteins” value (BRD2, 3 and 4; 48.5° C. heat shock) of the same molecule?
**A.** stabilized BRD2, 3 and 4 in a concentration dependent manner

**Q.** What about the “apoptosis by caspase-3 and PARP cleavage” value (MV4; 11 cells) of the same molecule?
**A.** Significant apoptosis

**Q.** What about the “body weight after drug withdrawal” value [5] of the same molecule?
**A.** recovered body weight after drug was withdrawn

**Q.** What about the “disease monitored by bioluminescence” value ([5]; compared to JQ1) of the same molecule?
**A.** significantly reduced

**Q.** What about the overall survival ([5]; compared to vehicle or JQ1) of the same molecule?
**A.** significantly increased overall survival

**Q.** And the “mice sacrificed due to emaciation from drug toxicity” value ([5]; of 11 mice)?
**A.** two

**Q.** And the “off-target effects on receptors and ion channels” value [6]?
**A.** limited activity; also recorded: few off-target effects

**Q.** What about the “leukemic burden by bioluminescence imaging” value ([7]; half an equivalence (22.1 μmol/kg), 14 days, compared to vehicle or JQ1) of the same molecule?
**A.** significantly reduced leukemic burden

**Q.** And the “mCherry+ leukemic burden in bone marrow by FACS” value ([7]; post-mortem, MT1 at 22.1)?
**A.** significantly decreased
